Results as given in ChEMBL document CHEMBL3112584, “Urokinase-type plasminogen activator expression and Rac1/WAVE-2/Arp2/3 pathway are blocked by pterostilbene to suppress cell migration and invasion in MDA-MB-231 cells” (Bioorg Med Chem Lett, 2014).
Activity calls are given as the source filed them. The rule behind the calls is not given here.

How the values were obtained:
[1] = target: Ras-related C3 botulinum toxin substrate 1 (Homo sapiens) (UniProt P63000); assay: Inhibition of Rac1-mediated WAVE-2/Arp2/3 expression in human MDA-MB-231 cells after […] by Western blotting analysis; type: cell-based
MDA-MB-231 [2] = assay: Antiinvasion activity in human MDA-MB-231 cells reduction of cell assessed as inhibition of FBS-induced cell invaded to lower surface at 5 uM after 24 hrs; type: functional; details: MDA-MB-231, 24 h
MDA-MB-231 [3] = assay: Inhibition of cell migration in human MDA-MB-231 cells reduction of cell assessed as cells migrated into scratched area at 2 uM after 24 hrs by wound healing assay; type: functional; details: MDA-MB-231, 24 h
Homo sapiens = species on record: Homo sapiens; assay: Inhibition of DNA binding of NF-kappaB (unknown origin) on uPA promoter at 10 uM by ChIP assay
MDA-MB-231 [4] = assay: Inhibition of NF-kappaB activation in human MDA-MB-231 cells after 24 hrs by luciferase assay; type: cell-based
MDA-MB-231 [5] = assay: Down-regulation of uPA mRNA expression in human MDA-MB-231 cells after 24 hrs by RT-PCR analysis; type: functional, cell-based
[6] = target: Ras-related C3 botulinum toxin substrate 1 (Homo sapiens) (UniProt P63000); assay: Inhibition of Rac1 in human MDA-MB-231 cells at 10 uM after 30 mins by G-LISA activity assay; type: cell-based
[7] = Cytotoxicity against human MDA-MB-231 cells assessed as cell viability at 40 uM after 24 hrs by MTT assay relative to control; type: cell-based; details: read-out: Activity
MDA-MB-231 [8] = assay: Cytotoxicity against human MDA-MB-231 cells assessed as cell viability up to 10 uM after 24 hrs by MTT assay relative to control; type: cell-based; details: mda-mb-231, 24 h
MDA-MB-231 [9] = assay: Antiinvasion activity in human MDA-MB-231 cells reduction of cell assessed as inhibition of FBS-induced cell invaded to lower surface at 2 uM after 24 hrs; type: functional; details: MDA-MB-231, 24 h
[10] = target: Urokinase-type plasminogen activator (Homo sapiens) (UniProt P00749); assay: Inhibition of uPA activity in human MDA-MB-231 cells at 10 uM; type: cell-based; parameters: scale not given: the % may be the effect or the level left
MDA-MB-231 [11] = assay: Antiinvasion activity in human MDA-MB-231 cells reduction of cell assessed as inhibition of FBS-induced cell invaded to lower surface at 10 uM after 24 hrs; type: functional; details: MDA-MB-231, 24 h
[12] = target: Urokinase-type plasminogen activator (Homo sapiens) (UniProt P00749); assay: Inhibition of uPA activity in human MDA-MB-231 cells at 5 uM; type: cell-based; parameters: scale not given: the % may be the effect or the level left
MDA-MB-231 [13] = assay: Down-regulation of uPAR mRNA expression in human MDA-MB-231 cells at 2 to 10 uM after 24 hrs by RT-PCR analysis; type: functional, cell-based
[14] = target: Ras-related C3 botulinum toxin substrate 1 (Homo sapiens) (UniProt P63000); assay: Inhibition of Rac1 in human MDA-MB-231 cells at 5 uM after 30 mins by G-LISA activity assay; type: cell-based
MDA-MB-231 [15] = assay: Inhibition of cell migration in human MDA-MB-231 cells assessed as reduction of cell migrated into scratched area at 10 uM after 24 hrs by wound healing assay; type: functional; details: MDA-MB-231, 24 h
[16] = target: Ras-related C3 botulinum toxin substrate 1 (Homo sapiens) (UniProt P63000); assay: Inhibition of Rac1 in human MDA-MB-231 cells at 2 uM after 30 mins by G-LISA activity assay; type: cell-based
MDA-MB-231 [17] = assay: Inhibition of cell migration in human MDA-MB-231 reduction of cell assessed as cells migrated into scratched area at 5 uM after 24 hrs by wound healing assay; type: functional; details: MDA-MB-231, 24 h

Q: What does the source list for `COc1cc(/C=C/c2ccc(O)cc2)cc(OC)c1` [PTEROSTILBENE]?
A: inhibition [1]: Dose-dependent effect; inhibition at 5 µM (MDA-MB-231 [2]): 29%; inhibition at 2 µM (MDA-MB-231 [3]): 25%; inhibition (Homo sapiens): Active; inhibition (MDA-MB-231 [4]): Dose-dependent effect; Activity (MDA-MB-231 [5]): Dose-dependent effect; inhibition [6]: 27%; viability at 24 h, 40 µM [7]: 40%; Activity (MDA-MB-231 [8]): Non-toxic; inhibition at 2 µM (MDA-MB-231 [9]): 20%; Activity [10]: 61%; inhibition at 10 µM (MDA-MB-231 [11]): 38%; Activity [12]: 25%; Activity (MDA-MB-231 [13]): inactive; inhibition [14]: 22%; inhibition at 10 µM (MDA-MB-231 [15]): 76%; inhibition [16]: 14%; inhibition at 5 µM (MDA-MB-231 [17]): 59%
